Test [1] concerns Escherichia coli with type 1 pili (strain 382). In kind it is cell-based. The following applies: minimum inhibitive concentration (mg/ml) divided by that of D-mannose, x100; lower = stronger; free mannose derivatives before copolymerization. The source says:
The conducted bacteriological test is an agglutination yeast test. In fact the bacteria Escherichia coli with type 1 pili, have the capacity to agglutinate yeasts. The agglutination may be prevented by mannose derivatives. The strain 382 of Escherichia coli obtained from National Bacteriological Laboratory of Stockholm, which expresses in a stable manner type 1 pili, is used. The expression of the pili can be enhanced by growing bacteria by way of three subcultures in a nutrient broth (NB, oxiod). After culture the bacteria are centrifuged and added as suspension in the same amount of phosphate buffered saline (PBS pH 7.2). A concentration of bacteria equal to 2-3.10^9 bacteria/ml is obtained. Baker's yeasts are added as suspension into PBS at a final concentration of 5.10^8 cells/ml. The various mannose derivatives are diluted from the initial concentration of 20 mg/ml maximum in two stages in PBS. Into 50 μl of each diluted sugar 50 μl of Escherichia coli is added and incubated at room temperature for 15 min to allow interaction. Finally 50 μl of yeast is added into each tube. After another 15 min. incubation at room temperature and one night at 4° C., agglutination, in other words interaction between bacteria and yeast, is evaluated.

Test [2] shares this test system. In kind it is cell-based. The following applies: agglutination test of the terpolymer directly on Escherichia coli strains; relative to D mannose = 100.

With `O=C[C@@H](O)[C@@H](O)[C@H](O)[C@H](O)CO` [D-Mannose], in test [1], the “Inhibitive activity in %” value was 100%. Moreover, in test [2], the Inhibitative activity was 100%. With `OCC1O[C@H](OCc2ccccc2)C(O)[C@@H](O)[C@@H]1O` (stereo partly drawn) [Compound 10, Benzyl-α-D-Mannopyranoside], the “Inhibitive activity in %” value in test [1] worked out at 24%.

As for `C=CCO[C@H]1OC(CO)[C@@H](O)C(O)C1O` (stereo partly drawn) [Compound 8, Allyl-α-D-mannopyranoside], the “Inhibitive activity in %” value in test [1] is 0.12%. Take `O=[N+]([O-])c1ccc(O[C@H]2O[C@H](CO)[C@@H](O)[C@H](O[C@H]3O[C@H](CO)[C@@H](O)[C@H](O)[C@@H]3O)[C@@H]2O)cc1` [Compound 15, p-Nitrophenyl 3-O-α-D-Mannopyranosyl-α-DMannopyranoside]: the “Inhibitive activity in %” value in test [1] worked out at 0.70%.

As to `CO[C@H]1O[C@H](CO)[C@@H](O)[C@H](O)[C@@H]1O` [Methyl-α-D-Mannoside, reference compound], the “Inhibitive activity in %” value in test [1] is listed as 45%. On the same count and under the same terms, in the case of `Nc1ccc(O[C@H]2O[C@H](CO)[C@@H](O)[C@H](O)[C@@H]2O)cc1` [Compound 12, p-Aminophenyl-α-D-Mannopyranoside] it was 0.93%. Still for that read-out and setting: for `CCS[C@H]1O[C@H](CO)[C@@H](O)[C@H](O)[C@@H]1O` [Ethyl 1-thio-α-D-mannopyranoside, reference compound] the value was 18%; for `OCCOCCO[C@H]1OC(CO)[C@@H](O)[C@H](O)C1O` (stereo partly drawn) [Compound 4, 2-[(2-hydroxy-)ethoxy-]-ethyl α-D-Mannopyranoside], 24%; for `COCCOCCO[C@H]1O[C@H](CO)[C@@H](O)[C@H](O)[C@@H]1O` [Compound 7, 2-[(2-methoxy-)ethoxy-]-ethyl α-D-Mannopyranoside], 24%.

The record behind these values is US20120100097A1, “CELLULOSE SUPPORT CONTAINING D-MANNOSE DERIVATIVES” (priority 2009, published 2012).
